Source: article PMC4698308, “A new amino acid substitution (Ala-205-Phe) in acetolactate synthase (ALS) confers broad spectrum resistance to ALS-inhibiting herbicides” (Planta, 2015)
Read-outs that look alike come from different tables or passages of the source.

Experiments:
[1] = target: T1, recombinant Arabidopsis thaliana ALS wild-type enzyme (WT—sensitive) (Arabidopsis thaliana, UniProt P17597); test: biochemical
T1 construct: Protein constructs contained an 85 amino acid N-terminal deletion (chloroplast transit peptide); Hexa-histidine tag (N); made in house
Description: (§1) Effects of SNPs identified in sequencing analysis on ALS activity were studied using A. thaliana. The ALS gene from A. thaliana and derivatives thereof were de novo synthesized and subcloned into pET-24d(+) (Life Technologies. Grand Island, NY, USA) using NcoI and XhoI restriction sites. Protein constructs contained an 85 amino acid N-terminal deletion (chloroplast transit peptide) and the addition of an N-terminal Hexa-histidine tag to facilitate purification.
(§2) Lysis was performed by at least two passes through a fluidizer, followed by centrifuging at 80000×g for 30 min at 4 °C. […] Fractions containing ALS protein were pooled and stored at −20 °C.
(§3) Inhibitors, purchased from Sigma as Pestanal standards (Sigma-Aldrich, Deisenhofen, Germany), were dissolved in DMSO and added to the reaction mixture. Inhibitors evaluated included imidazolinone, sulfonylurea, triazolopyrimidines, sulfonylamino-carbonyl- triazolinones, and pyrimidinyl (thio) benzoate herbicides. The reaction mixture was incubated at 30 °C for 60 min and stopped with 70 µl of H2SO4 (3 M). The reaction was then heated to 56 °C for 15 min to convert acetolactate into acetoin. […] For each inhibitor, resistance factors were calculated by dividing IC50 values for mutant and sensitive ALS.

[2] = tested on: recombinant Arabidopsis thaliana ALS variant A205F; assay type: biochemical; settings: IC50 mutant divided by IC50 sensitive ALS; max inhibitor concentration 1.00 × 10^−04 M
Description: as §1, §2, §3

[3] = tested on: recombinant Arabidopsis thaliana ALS variant A205V; assay type: biochemical; settings: IC50 mutant divided by IC50 sensitive ALS; max inhibitor concentration 1.00 × 10^−04 M
Description: as §1, §2, §3

[4] = tested on: recombinant Arabidopsis thaliana ALS variant W574L; assay type: biochemical; settings: IC50 mutant divided by IC50 sensitive ALS; max inhibitor concentration 1.00 × 10^−04 M
Description: as §1, §2, §3

[5] = tested on: annual bluegrass (Poa annua L.); test: Whole plant non-target site resistance experiment with P450 inhibitors malathion or PBO (control 21 days after treatment); assay type: in vivo; settings: for Annual bluegrass control S: susceptible (S)
Description: Additional experiments were conducted during March–April 2015 to determine if non-target site based mechanisms conferred resistance to ALS inhibitors in our annual bluegrass population, POAAN-R3. Plants (RP6, RP7, and S) were cultured in plastic conical containers as previously described and allowed to acclimate to the glasshouse for 18 days prior to initiating two experiments.
In the first experiment, resistant (RP6, RP7) and susceptible (S) plants were treated with foramsulfuron at 29 g ha^−1, trifloxysulfuron (Monument. Syngenta Professional Products. Greensboro, NC, USA) at 27.8 g ha^−1, imazaquin (Image. BASF Corporation. Research Triangle Park, NC) at 27.5 g ha^−1, or bispyribac-sodium (Velocity. Valent USA Corporation. Walnut Creek, CA, USA) at 70 g ha^−1. All herbicides were applied alone or in combination with either malathion (Spectrum Group. St. Louis, MO, USA) at 1000 g ha^−1 or piperonyl butoxide (Sigma Aldrich. St. Louis, MO, USA) at 2100 g ha^−1. Malathion and piperonyl butoxide (PBO) inhibit cytochrome P450 monooxygenases involved in metabolism of ALS inhibiting herbicides and are commonly used at the application rates tested herein to evaluate non-target site based resistance mechanisms in weeds (Burnet et al. [1994]; Christopher et al. [1992]; Yu and Powles [2014b]; Rao et al. [1995]). All herbicides were mixed in water carrier and included non-ionic surfactant at 0.25 % v/v. Malathion and PBO were mixed with methanol and de-ionized water (50:50) and applied 60 min prior to herbicide application using a previously described enclosed spray chamber on 13 February 2015.
Annual bluegrass control was visually assessed on a 0 (i.e., no control) to 100 % (i.e., complete kill) scale relative to the non-treated 21 days after treatment. After all control data had been collected, aboveground biomass was harvested from each plastic conical container at the soil line using scissors, dried at 100 °C, and weighed. Treatments were arranged as a 3 × 5 × 3 factorial with three plant selections (RP6, RP7, S), five herbicides (foramsulfuron, trifloxysulfuron, imazaquin, bispyribac-sodium, non-treated) and three P450 inhibitor treatments (malathion, PBO, non-treated) in a completely randomized design with four replications and repeated in separate glasshouses during February 2015.

[6] = tested on: annual bluegrass population POAAN-R3; parameters: method as in Brosnan et al. [2015]; settings: ref Brosnan et al. [2015], cited from earlier work
[7] = tested on: annual bluegrass (Poa annua L.); test: Whole plant confirmation of target-site resistance (visual control and dry biomass 28 days after treatment); assay type: in vivo
Description: Progeny of all POAAN-R3 plants subjected to genetic sequencing (RP1–RP8) were surface seeded into separate 10.2 × 10.2 cm greenhouse pots (Dillen Products/Myers Industries, Inc. Middlefield, OH, USA.) filled with a peat moss growing medium (ProMix BX Mycorrhizae. Premier Tech Horticulture, Quakertown, PA, USA) on 5 January 2015. The susceptible annual bluegrass population (S) included in our sequencing analysis was also seeded in the same fashion.
After seeding, pots were placed inside a growth chamber (Conviron A1000. Controlled Environments Inc, Hendersonville, NC) configured to provide 14 h day at 19 °C and a 10 h night at 10 °C. Light intensity inside the chamber averaged 296 μmol m^−2 s^−1. Irrigation was applied to each pot daily using distilled water and a misting nozzle. Annual bluegrass emergence was first noted on 16 January 2015. Plants remained inside the growth chamber until 26 January 2015. On this date, seedlings of each plant (RP1–RP8, S) were transplanted into individual 164 cm^3 plastic conical containers (SC10 Super Cell Cone-tainer. Stuewe and Sons. Tangent, OR 97389) filled with Sequatchie silt loam (fine-loamy, siliceous, semiactive, thermic humic Hapludult) measuring 6.2 in soil pH and 2.1 % in organic matter content. Transplants were replicated such that 32 plastic conical containers were created for each annual bluegrass plant analyzed in previous experiments (RP1–RP8, S). Immediately after transplanting, plastic conical containers were placed in a glasshouse located at the University of Tennessee (Knoxville, TN, USA; 35.56, 83.56). Peak light intensity in this glasshouse averaged 714 μmol m^−2 s^−1 with day/night temperatures averaging 27/17 °C. Irrigation was applied daily using an overhead misting system and plants were not clipped prior to initiating this study.
Plants were allowed to acclimate to this glasshouse environment for 10 days prior to being treated with foramsulfuron (Revolver. Bayer Environmental Sciences. Research Triangle Park, NC, USA) at 29 g ha^−1, imazamox (Clearcast. BASF Corporation. Research Triangle Park, NC) at 140 g ha^−1, or simazine (Princep 4L. Syngenta Professional Products. Greensboro, NC) at 1120 g ha^−1. Per label recommendations, imazamox and simazine treatments included a non-ionic surfactant (Activator-90. Loveland Products Inc. Greeley, CO, USA) at 0.25 % v/v. All treatments were applied in an enclosed spray chamber (Generation III track sprayer. DeVries Manufacturing, Hollandale, MN, USA) using a water carrier at 215 L ha^−1 through an 8004 EVS nozzle (TeeJet, Technologies, Spraying Systems Co., Glendale Heights, IL, USA). These herbicide treatments were selected to confirm results of genetic sequencing that RP1–RP8 were resistant to sulfonylurea, imidazolinone, and photosystem II inhibiting herbicides. A non-treated control treatment was included with each resistant (RP1–RP8) and susceptible (S) plant for comparison. Herbicides were applied on 5 February 2015 when plants were at a two-to-three leaf stage, prior to annual bluegrass tiller formation.
Annual bluegrass control was visually assessed on a 0 (i.e., no control) to 100 % (i.e., complete kill) scale relative to the non-treated 28 days after treatment. After all control data had been collected, aboveground biomass was harvested from each plastic conical container at the soil line using scissors, dried at 100 °C for 3 days, and weighed.
Treatments were arranged as a 9 × 4 factorial with nine plant selections (i.e., RP1–RP8, S) and four herbicide treatments (i.e., foramsulfuron, imazamox, simazine, non-treated) in a completely randomized design with four replications and repeated in time and space during February 2015. Plants were the same age during both experimental runs.

[8] = RP6, herbicide alone, foramsulfuron 29, trifloxysulfuron 27.8, imazaquin 27.5, bispyribac-sodium 70 g ha^−1
[9] = RP6, herbicide with PBO 2100 g ha^−1 applied 60 min prior
[10] = RP6, herbicide with malathion 1000 g ha^−1 applied 60 min prior
[11] = RP7, herbicide alone, foramsulfuron 29, trifloxysulfuron 27.8, imazaquin 27.5, bispyribac-sodium 70 g ha^−1
[12] = RP7, herbicide with PBO 2100 g ha^−1 applied 60 min prior
[13] = RP7, herbicide with malathion 1000 g ha^−1 applied 60 min prior
[14] = herbicide alone, foramsulfuron 29, trifloxysulfuron 27.8, imazaquin 27.5, bispyribac-sodium 70 g ha^−1
[15] = herbicide with PBO 2100 g ha^−1 applied 60 min prior
[16] = herbicide with malathion 1000 g ha^−1 applied 60 min prior

T1 sequence (P17597 86-670): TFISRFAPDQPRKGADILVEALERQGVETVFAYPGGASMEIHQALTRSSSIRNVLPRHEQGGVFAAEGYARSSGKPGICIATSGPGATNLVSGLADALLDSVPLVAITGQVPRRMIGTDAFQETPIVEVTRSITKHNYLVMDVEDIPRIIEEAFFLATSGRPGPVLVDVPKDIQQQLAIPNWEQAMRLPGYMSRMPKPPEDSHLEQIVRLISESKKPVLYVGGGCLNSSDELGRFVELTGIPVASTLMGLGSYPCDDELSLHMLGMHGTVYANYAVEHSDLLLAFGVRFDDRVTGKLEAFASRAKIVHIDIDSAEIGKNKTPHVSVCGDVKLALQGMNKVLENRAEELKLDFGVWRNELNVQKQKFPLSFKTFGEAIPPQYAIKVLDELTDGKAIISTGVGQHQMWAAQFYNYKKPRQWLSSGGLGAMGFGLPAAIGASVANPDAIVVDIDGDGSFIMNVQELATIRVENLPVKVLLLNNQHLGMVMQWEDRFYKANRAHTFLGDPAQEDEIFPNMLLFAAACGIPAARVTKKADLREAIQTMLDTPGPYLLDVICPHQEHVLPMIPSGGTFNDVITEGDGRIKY

| Compound | Resistance factor A205F [2] | Resistance factor A205V [3] | Resistance factor W574L [4] | Annual bluegrass control RP6 [5, 8] [%] | Annual bluegrass control RP6 [5, 9] [%] | Annual bluegrass control RP6 [5, 10] [%] | Annual bluegrass control RP7 [5, 11] [%] | Annual bluegrass control RP7 [5, 12] [%] | Annual bluegrass control RP7 [5, 13] [%] | Annual bluegrass control S [5, 14] [%] | Annual bluegrass control S [5, 15] [%] | Annual bluegrass control S [5, 16] [%] | other results |
| --- | --- | --- | --- | --- | --- | --- | --- | --- | --- | --- | --- | --- | --- |
| COc1cc(OC)nc(NC(=O)NS(=O)(=O)c2ncccc2OCC(F)(F)F)n1 [Trifloxysulfuron] | 2983 | 9 | 6447 | 38 | 55 | 49 | 22 | 17 | 28 | 94 | 94 | 92 | IC50 ([1]; concentration for 50 % inhibition of WT enzyme, max inhibitor concentration 1.00 × 10^−04 M, read-out: WT sensitivity [IC50]): 5.9 nM; control of POAAN-R3 ([6]; rates as high as 223 g ha^−1): ≤ 40% |
| CC(C)C1(C)N=C(c2nc3ccccc3cc2C(=O)O)NC1=O (stereo not shown) [Imazaquin] | 19 | 36 | 65 | 36 | 24 | 32 | 11 | 9 | 8 | 53 | 71 | 64 | IC50 [1]: 1550 nM |
| CCNc1nc(Cl)nc(NCC)n1 [Simazine] | – | – | – | – | – | – | – | – | – | – | – | – | Annual bluegrass biomass RP1 ([7]; RP1, aboveground dry biomass 28 days after treatment, foramsulfuron 29, imazamox 140, simazine 1120 g ha^-1): 124 % of nontreated control; Annual bluegrass control RP1 ([7]; RP1 plants, 28 days after treatment, 2 to 3 leaf stage, foramsulfuron 29, imazamox 140, simazine 1120 g ha^−1): 0%; Annual bluegrass biomass RP2 ([7]; RP2, aboveground dry biomass 28 days after treatment, foramsulfuron 29, imazamox 140, simazine 1120 g ha^-1): 105 % of nontreated control; Annual bluegrass control RP2 ([7]; RP2 plants, 28 days after treatment, 2 to 3 leaf stage, foramsulfuron 29, imazamox 140, simazine 1120 g ha^−1): 0%; Annual bluegrass biomass RP3 ([7]; RP3, aboveground dry biomass 28 days after treatment, foramsulfuron 29, imazamox 140, simazine 1120 g ha^-1): 140 % of nontreated control; Annual bluegrass control RP3 ([7]; RP3 plants, 28 days after treatment, 2 to 3 leaf stage, foramsulfuron 29, imazamox 140, simazine 1120 g ha^−1): 0%; Annual bluegrass biomass RP4 ([7]; RP4, aboveground dry biomass 28 days after treatment, foramsulfuron 29, imazamox 140, simazine 1120 g ha^-1): 95 % of nontreated control; Annual bluegrass control RP4 ([7]; RP4 plants, 28 days after treatment, 2 to 3 leaf stage, foramsulfuron 29, imazamox 140, simazine 1120 g ha^−1): 0%; Annual bluegrass biomass RP5 ([7]; RP5, aboveground dry biomass 28 days after treatment, foramsulfuron 29, imazamox 140, simazine 1120 g ha^-1): 82 % of nontreated control; Annual bluegrass control RP5 ([7]; RP5 plants, 28 days after treatment, 2 to 3 leaf stage, foramsulfuron 29, imazamox 140, simazine 1120 g ha^−1): 0%; Annual bluegrass biomass RP6 ([7]; RP6, aboveground dry biomass 28 days after treatment, foramsulfuron 29, imazamox 140, simazine 1120 g ha^-1): 0 % of nontreated control; Annual bluegrass control RP6 ([7]; RP6 plants, 28 days after treatment, 2 to 3 leaf stage, foramsulfuron 29, imazamox 140, simazine 1120 g ha^−1): 100%; Annual bluegrass biomass RP7 ([7]; RP7, aboveground dry biomass 28 days after treatment, foramsulfuron 29, imazamox 140, simazine 1120 g ha^-1): 99 % of nontreated control; Annual bluegrass control RP7 ([7]; RP7 plants, 28 days after treatment, 2 to 3 leaf stage, foramsulfuron 29, imazamox 140, simazine 1120 g ha^−1): 0%; Annual bluegrass biomass RP8 ([7]; RP8, aboveground dry biomass 28 days after treatment, foramsulfuron 29, imazamox 140, simazine 1120 g ha^-1): 101 % of nontreated control; Annual bluegrass control RP8 ([7]; RP8 plants, 28 days after treatment, 2 to 3 leaf stage, foramsulfuron 29, imazamox 140, simazine 1120 g ha^−1): 0%; Annual bluegrass control S ([7]; susceptible (S) plants, 28 days after treatment, 2 to 3 leaf stage, foramsulfuron 29, imazamox 140, simazine 1120 g ha^−1): 98%; Annual bluegrass biomass S ([7]; susceptible (S), aboveground dry biomass 28 days after treatment, foramsulfuron 29, imazamox 140, simazine 1120 g ha^-1): 5 % of nontreated control; control of POAAN-R3 ([6]; 140 to 9000 g ha^−1): ≤ 20% |
